Measurements as given in the NIST ThermoML archive (doi:10.1016/j.fluid.2011.07.007).
Values joined by “and” are separate entries in the source; they are usually repeats but may differ in a detail not shown here. Equal values may be shown once. Where a name gives a salt, the structure may show the parent alone.

Settings: Transpiration method

CC(C)(C)OC(=O)C(=O)OC(C)(C)C [di-tert-butyl oxalate]
Settings | vapor or sublimation pressure [kPa]
293.8 K, Crystal | 0.00391
296.7 K, Crystal | 0.0058
299.7 K, Crystal | 0.00793
302.7 K, Crystal | 0.0109
305.7 K, Crystal | 0.0154
308.3 K, Crystal | 0.0201
308.8 K, Crystal | 0.0217
311.2 K, Crystal | 0.0276
311.7 K, Crystal | 0.0293
314.2 K, Crystal | 0.0384
314.7 K, Crystal | 0.0405
317.6 K, Crystal | 0.0574
320.7 K, Crystal | 0.0769
323.2 K, Crystal | 0.0956
323.6 K, Crystal | 0.1
326.6 K, Crystal | 0.1313
329.6 K, Crystal | 0.1637
333.2 K, Crystal | 0.2253
333.7 K, Crystal | 0.2468
338.2 K, Crystal | 0.3739
338.6 K, Crystal | 0.3689
345.6 K, Liquid | 0.4066
346.7 K, Liquid | 0.4358
347.6 K, Liquid | 0.4703
348.6 K, Liquid | 0.4816
351.5 K, Liquid | 0.5565
351.7 K, Liquid | 0.5963
352.5 K, Liquid | 0.6078
354.5 K, Liquid | 0.6715
356.5 K, Liquid | 0.7609
357.5 K, Liquid | 0.799
360.7 K, Liquid | 0.9613
361.2 K, Liquid | 1
363.7 K, Liquid | 1.053
366.2 K, Liquid | 1.252
371.2 K, Liquid | 1.638

CC(C)(C)OC(=O)CCC(=O)OC(C)(C)C [di-tert-butyl succinate]
Liquid
Settings | vapor or sublimation pressure
323.2 K | 0.0331 kPa
326.2 K | 0.0419 kPa
331.2 K | 0.0592 kPa
333.2 K | 0.0697 kPa
335.2 K | 0.0817 kPa
337.2 K | 0.0885 kPa
339.2 K | 0.1043 kPa
341.2 K | 0.1198 kPa
343.2 K | 0.1351 kPa
345.2 K | 0.1498 kPa and 0.1534 kPa
347.2 K | 0.1716 kPa
349.2 K | 0.2009 kPa
351.2 K | 0.2187 kPa
353.2 K | 0.2523 kPa
355.2 K | 0.2842 kPa

CC(C)OC(=O)CC(=O)OC(C)C [diisopropyl malonate]
Liquid
Settings | vapor or sublimation pressure [kPa]
289.3 K | 0.00784
292.5 K | 0.0105
295.4 K | 0.0139
298.4 K | 0.0172
301.4 K | 0.0228
304.4 K | 0.0293
307.4 K | 0.0375
310.4 K | 0.0471
313.4 K | 0.0581
315.4 K | 0.0688
316.5 K | 0.0757
318.5 K | 0.0862
319.4 K | 0.0965
321.5 K | 0.1068
322.5 K | 0.1138
323.5 K | 0.1282
325.4 K | 0.1468

CC(C)OC(=O)C(=O)OC(C)C [diisopropyl oxalate]
Liquid
Settings | vapor or sublimation pressure [kPa]
287.5 K | 0.0149
290.4 K | 0.0197
293.3 K | 0.0254
297.3 K | 0.035
300.3 K | 0.0452
303.3 K | 0.0576
306.3 K | 0.0712
308.3 K | 0.0846
311.2 K | 0.1081
313.3 K | 0.1266
316.3 K | 0.151
318.4 K | 0.1722
318.5 K | 0.1731
321.2 K | 0.2066
322.4 K | 0.2247
323.6 K | 0.2533
326.4 K | 0.2884
330.5 K | 0.3766
